Key:
[1] = target: T1, 11β HSD1 (11β-hydroxysteroid dehydrogenase type 1) (Mus musculus, UniProt P50172); assay: in vitro enzyme inhibition assay with purified recombinant enzyme; type: biochemical
T1 construct: gene Hsd11b1; purified recombinant mouse 11β HSD1

[2] = target: T2, 11β HSD1 (11β-hydroxysteroid dehydrogenase type 1) (Homo sapiens, UniProt P28845); assay: as above; type: biochemical
T2 construct: gene HSD11B1; purified recombinant human 11β HSD1
T2 sequence (P28845 whole entry): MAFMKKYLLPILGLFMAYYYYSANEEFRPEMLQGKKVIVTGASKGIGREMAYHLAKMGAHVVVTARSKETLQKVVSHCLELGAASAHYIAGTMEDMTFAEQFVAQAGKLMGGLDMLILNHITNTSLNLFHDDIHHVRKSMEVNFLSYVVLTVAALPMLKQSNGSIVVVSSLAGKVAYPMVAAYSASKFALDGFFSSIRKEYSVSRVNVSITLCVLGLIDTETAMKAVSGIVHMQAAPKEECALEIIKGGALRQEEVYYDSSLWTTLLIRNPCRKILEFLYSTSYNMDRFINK

T1 sequence (P50172 whole entry): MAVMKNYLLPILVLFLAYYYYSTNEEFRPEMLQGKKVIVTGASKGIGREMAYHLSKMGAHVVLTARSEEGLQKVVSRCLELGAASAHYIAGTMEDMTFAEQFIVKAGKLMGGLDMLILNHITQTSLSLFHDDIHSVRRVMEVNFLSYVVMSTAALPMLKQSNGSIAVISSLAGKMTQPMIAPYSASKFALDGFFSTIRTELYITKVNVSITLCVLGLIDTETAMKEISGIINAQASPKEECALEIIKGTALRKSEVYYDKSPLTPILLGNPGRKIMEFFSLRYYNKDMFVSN

Ki [1]: 36 nM
Ki [2]: 29 nM
Compound: C[C@H](NC1=NC(=O)[C@@](C)(C(F)(F)F)S1)c1ccccc1F [BVT116429, (S)-2-((S)-1-(2-fluorophenyl)ethylamino)-5-methyl-5-(trifluoromethyl)thiazol-4(5H)-one]
